{
  "source": "paper PMC2651670",
  "about": "(Biochemistry, 2009)",
  "key": {"[1]": {"biological_target": "subcomplex Iλ (Bos taurus, UniProt P25708)", "sequence (P04394 33-249)": "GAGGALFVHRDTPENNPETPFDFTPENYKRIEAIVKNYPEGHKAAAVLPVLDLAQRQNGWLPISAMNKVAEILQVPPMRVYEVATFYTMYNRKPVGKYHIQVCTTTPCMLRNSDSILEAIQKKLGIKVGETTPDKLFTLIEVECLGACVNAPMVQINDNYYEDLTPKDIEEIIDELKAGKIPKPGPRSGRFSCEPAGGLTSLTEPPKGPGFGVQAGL", "sequence (P25708 21-464)": "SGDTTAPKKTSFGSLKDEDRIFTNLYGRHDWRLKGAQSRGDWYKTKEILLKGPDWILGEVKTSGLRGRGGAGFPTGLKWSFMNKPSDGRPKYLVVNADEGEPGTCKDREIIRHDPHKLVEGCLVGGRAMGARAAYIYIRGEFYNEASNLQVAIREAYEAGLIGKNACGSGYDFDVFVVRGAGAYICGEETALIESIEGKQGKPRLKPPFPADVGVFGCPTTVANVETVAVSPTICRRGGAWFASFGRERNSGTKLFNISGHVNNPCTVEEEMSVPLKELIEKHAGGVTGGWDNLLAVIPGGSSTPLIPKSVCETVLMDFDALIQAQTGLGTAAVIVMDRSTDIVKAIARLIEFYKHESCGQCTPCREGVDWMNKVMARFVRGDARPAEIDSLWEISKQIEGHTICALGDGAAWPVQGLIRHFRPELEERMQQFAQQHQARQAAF", "sequence (P15690 24-727, further chain)": "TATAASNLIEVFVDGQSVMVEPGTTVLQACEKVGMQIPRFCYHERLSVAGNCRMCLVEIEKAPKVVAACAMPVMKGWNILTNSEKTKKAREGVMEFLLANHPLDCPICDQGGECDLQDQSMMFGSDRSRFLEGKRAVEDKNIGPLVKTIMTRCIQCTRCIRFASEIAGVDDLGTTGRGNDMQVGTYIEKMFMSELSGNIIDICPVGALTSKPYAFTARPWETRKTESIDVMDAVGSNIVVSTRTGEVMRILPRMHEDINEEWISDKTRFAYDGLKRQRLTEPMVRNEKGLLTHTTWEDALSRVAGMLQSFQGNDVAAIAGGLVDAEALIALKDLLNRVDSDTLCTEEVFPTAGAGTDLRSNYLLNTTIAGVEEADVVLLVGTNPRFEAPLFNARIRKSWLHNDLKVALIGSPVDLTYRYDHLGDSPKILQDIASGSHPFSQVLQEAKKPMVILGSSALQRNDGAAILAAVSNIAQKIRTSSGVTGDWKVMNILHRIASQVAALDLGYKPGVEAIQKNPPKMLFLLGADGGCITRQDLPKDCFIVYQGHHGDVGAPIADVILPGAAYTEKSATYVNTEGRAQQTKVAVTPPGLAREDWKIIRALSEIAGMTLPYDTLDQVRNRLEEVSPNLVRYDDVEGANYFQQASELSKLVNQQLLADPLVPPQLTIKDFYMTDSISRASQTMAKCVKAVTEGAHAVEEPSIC", "test": "NADH:Q1 oxidoreduction", "format": "biochemical", "settings": "100 μM NADH, 0.4 mg/mL asolectin, with or without 2.3 μM rotenone, pH 7.55, 32 °C; flavin site"}, "[2]": {"biological_target": "complex I (NADH:ubiquinone oxidoreductase), hydrophobic (physiological) Q-site (Bos taurus, UniProt P03887+P17694+P42026)", "sequence (P03887 whole entry)": "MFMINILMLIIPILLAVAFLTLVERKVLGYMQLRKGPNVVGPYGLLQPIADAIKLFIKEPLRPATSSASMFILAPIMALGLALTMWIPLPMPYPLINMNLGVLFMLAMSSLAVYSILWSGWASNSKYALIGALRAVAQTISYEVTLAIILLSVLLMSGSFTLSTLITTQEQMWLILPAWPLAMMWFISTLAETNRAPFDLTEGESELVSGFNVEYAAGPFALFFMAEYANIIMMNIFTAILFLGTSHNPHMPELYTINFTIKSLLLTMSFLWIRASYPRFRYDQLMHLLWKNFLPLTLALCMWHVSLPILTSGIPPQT", "sequence (P17694 34-463)": "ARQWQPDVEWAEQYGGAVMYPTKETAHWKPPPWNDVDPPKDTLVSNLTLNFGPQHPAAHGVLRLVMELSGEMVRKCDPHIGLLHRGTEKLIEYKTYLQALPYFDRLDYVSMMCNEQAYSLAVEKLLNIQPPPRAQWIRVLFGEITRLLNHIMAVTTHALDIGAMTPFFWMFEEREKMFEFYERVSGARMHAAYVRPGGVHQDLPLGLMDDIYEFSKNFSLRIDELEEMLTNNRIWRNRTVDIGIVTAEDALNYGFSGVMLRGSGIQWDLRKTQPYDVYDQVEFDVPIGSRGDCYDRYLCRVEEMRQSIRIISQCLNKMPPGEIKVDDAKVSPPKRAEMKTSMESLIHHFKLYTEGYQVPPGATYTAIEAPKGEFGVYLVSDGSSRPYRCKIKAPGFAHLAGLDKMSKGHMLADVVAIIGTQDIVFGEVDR", "sequence (P42026 38-216)": "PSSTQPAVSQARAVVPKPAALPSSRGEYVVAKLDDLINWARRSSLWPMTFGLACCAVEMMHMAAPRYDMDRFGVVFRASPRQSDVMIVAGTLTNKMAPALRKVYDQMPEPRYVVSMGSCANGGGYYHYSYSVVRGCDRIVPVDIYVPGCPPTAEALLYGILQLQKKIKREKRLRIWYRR", "test": "NADH:DQ oxidoreduction, NADH absorbance", "format": "biochemical"}},
  "data": [
    {"smiles": "COC1=C(OC)C(=O)C(CC=C(C)C)=C(C)C1=O", "note": "[Q1]", "values": [
      {"measurement": "NADH:Q1 oxidoreduction", "setting": "[1]", "value": "Q1 reduction by subcomplex Iλ is independent of the presence of rotenone"}
    ]},
    {"smiles": "C=C(C)[C@H]1Cc2c(ccc3c2O[C@@H]2COc4cc(OC)c(OC)cc4[C@@H]2C3=O)O1", "note": "[rotenone]", "values": [
      {"measurement": "inhibition at 2.3 µM", "setting": "[2]; read-out: % inhibition at 2.3 μM", "value": "~95", "unit": "%"}
    ]},
    {"smiles": "C/C=C(\\C)[C@H](O)[C@H](C)/C=C(C)/C=C/C/C(C)=C/Cc1nc(OC)c(OC)c(O)c1C", "note": "[piericidin A]", "values": [
      {"measurement": "inhibition at 1 µM", "setting": "[2]; read-out: % inhibition at 1 μM", "value": "~95", "unit": "%"}
    ]}
  ]
}
